Reference: patent US8598344B2, “CDKI pathway inhibitors and uses thereof” (Senex Biotechnology, priority 2009, dated 2013)

Key:
Assay in all cases: KinomeScan competition binding assay
BTK = target: T1, BTK (Homo sapiens, UniProt Q06187); details: 10 μM compound
T1 construct: purchased KinomeScan, a division of Ambit Biosciences
From the text: (§1) This similarity led us to test SNX14 for the ability to inhibit 285 kinases, using the services of KinaseProfiler of Millipore Corporation (285 kinases). […] The KINOMEscan assay has been described in detail in Fabian et al., Nat. Biotechnol. 23: 329 (2005) and Karaman et al., Nat. Biotechnol. 26: 127 (2008).
(§2) The KinomeScan assay is based on a competition binding assay that quantitatively measures the ability of a compound to compete with an immobilized, ATP site directed ligand. The assay is performed by combining three components: DNA-tagged kinase; immobilized ligand; and a test compound. The ability of the test compound to compete with the immobilized ligand is measured via quantitative PCR of the DNA tag. […] The CDKs tested by Millipore for inhibition with SNX14 included CDK1, CDK2, CDK3, CDK5, CDK7 and CDK9; none of these were inhibited to less than 49 percent of control (POC) activity. The CDKs tested by KinomeScan for the effect of Compound 1 included CDK2, CDK3, CDK4, CDK5, CDK7, CDK8, CDK9 and CDK19; aside from CDK8 and CDK19, the strongest inhibited CDK was CDK7 (33% POC binding). To determine the inhibition of which kinases correlates with the biological activity of SNX2-class compounds, we tested eight additional compounds of the SNX2 family, which gave different IC50 values in the cellular assays, for the ability to affect 24 kinases that were most susceptible to compound 1, through the services of KinomeScan. […] We have also determined the binding constant (Kd) for SNX14, compound 1, compound 20, compound 26, compound 43 and compound 14 in kinase assays for CDK8 and CDK19 (Table 1).

CDK19 = target: T2, CDK19 (Homo sapiens, UniProt Q9BWU1); details: for POC ligand binding, CDK19: 10 μM compound; for Kd: read-out: CDK19 inhibition (Kd); for inhibition of CDK19: 10 μM
T2 construct: purchased KinomeScan, a division of Ambit Biosciences
T2 sequence (Q9BWU1 whole entry): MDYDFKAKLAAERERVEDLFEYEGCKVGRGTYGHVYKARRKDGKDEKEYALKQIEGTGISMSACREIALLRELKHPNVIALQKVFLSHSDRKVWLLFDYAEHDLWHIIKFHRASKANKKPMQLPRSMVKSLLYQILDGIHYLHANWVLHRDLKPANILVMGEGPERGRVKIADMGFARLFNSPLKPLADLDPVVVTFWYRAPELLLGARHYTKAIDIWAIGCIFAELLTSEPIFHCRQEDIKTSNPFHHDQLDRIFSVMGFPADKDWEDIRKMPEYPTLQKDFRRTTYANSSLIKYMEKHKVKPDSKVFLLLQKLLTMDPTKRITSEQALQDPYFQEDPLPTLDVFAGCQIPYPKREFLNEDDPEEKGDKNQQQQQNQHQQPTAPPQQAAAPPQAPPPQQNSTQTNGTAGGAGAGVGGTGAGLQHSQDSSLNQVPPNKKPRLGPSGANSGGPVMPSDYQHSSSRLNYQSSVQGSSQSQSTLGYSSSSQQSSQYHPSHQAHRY
From the text: as §1, §2

CIT = target: T3, CIT (Homo sapiens, UniProt O14578); details: 10 μM compound
T3 construct: purchased KinomeScan, a division of Ambit Biosciences
T3 sequence (O14578 whole entry): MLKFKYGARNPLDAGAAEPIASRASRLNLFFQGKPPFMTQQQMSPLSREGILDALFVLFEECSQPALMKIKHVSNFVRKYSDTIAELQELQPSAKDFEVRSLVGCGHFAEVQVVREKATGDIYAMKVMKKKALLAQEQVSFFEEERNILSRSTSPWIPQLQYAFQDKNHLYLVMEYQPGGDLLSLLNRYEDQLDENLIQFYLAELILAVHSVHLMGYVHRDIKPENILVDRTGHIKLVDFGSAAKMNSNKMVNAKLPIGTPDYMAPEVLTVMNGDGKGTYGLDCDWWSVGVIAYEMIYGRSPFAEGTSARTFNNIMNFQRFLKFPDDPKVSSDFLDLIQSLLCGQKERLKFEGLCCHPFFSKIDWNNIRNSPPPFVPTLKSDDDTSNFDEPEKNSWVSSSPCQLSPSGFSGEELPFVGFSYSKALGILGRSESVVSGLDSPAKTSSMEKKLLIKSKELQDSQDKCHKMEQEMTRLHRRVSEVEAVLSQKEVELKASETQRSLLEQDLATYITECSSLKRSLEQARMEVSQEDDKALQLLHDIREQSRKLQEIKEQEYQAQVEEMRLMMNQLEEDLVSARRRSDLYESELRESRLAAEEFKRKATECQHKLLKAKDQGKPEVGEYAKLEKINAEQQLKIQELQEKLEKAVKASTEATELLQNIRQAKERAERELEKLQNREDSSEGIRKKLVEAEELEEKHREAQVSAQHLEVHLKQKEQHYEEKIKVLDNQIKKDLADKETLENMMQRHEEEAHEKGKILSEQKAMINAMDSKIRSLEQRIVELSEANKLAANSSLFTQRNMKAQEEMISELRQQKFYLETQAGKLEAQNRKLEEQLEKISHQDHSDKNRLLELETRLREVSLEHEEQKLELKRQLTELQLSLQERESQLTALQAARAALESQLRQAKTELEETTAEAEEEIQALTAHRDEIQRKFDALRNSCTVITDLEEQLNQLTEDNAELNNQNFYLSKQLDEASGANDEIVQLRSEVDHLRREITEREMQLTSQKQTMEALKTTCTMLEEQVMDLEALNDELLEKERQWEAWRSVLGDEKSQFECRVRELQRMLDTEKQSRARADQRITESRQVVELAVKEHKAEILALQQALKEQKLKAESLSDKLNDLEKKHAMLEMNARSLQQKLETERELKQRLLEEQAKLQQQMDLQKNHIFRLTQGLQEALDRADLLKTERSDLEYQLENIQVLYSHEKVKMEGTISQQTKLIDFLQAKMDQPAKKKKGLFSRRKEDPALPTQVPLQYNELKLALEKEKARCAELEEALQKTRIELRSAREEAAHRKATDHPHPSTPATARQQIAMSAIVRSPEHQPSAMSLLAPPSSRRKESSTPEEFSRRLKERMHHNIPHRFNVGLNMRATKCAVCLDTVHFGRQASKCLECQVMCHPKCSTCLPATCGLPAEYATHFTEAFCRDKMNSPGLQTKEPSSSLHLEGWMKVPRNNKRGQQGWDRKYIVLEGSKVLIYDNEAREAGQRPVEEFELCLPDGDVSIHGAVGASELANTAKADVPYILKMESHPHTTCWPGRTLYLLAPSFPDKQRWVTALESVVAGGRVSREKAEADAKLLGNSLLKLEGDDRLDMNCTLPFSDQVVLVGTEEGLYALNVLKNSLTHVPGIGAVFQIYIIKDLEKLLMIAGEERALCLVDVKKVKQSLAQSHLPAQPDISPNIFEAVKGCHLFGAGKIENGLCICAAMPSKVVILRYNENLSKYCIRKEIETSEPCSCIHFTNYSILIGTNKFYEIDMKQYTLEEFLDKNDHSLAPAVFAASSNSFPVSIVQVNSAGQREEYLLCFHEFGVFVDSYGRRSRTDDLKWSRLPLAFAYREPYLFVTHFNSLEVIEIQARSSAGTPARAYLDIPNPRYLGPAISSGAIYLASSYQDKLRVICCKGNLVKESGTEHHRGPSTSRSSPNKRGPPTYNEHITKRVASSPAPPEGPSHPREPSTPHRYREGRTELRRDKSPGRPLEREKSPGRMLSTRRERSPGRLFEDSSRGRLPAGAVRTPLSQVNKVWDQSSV
From the text: as §1, §2

EGFR (G719C) = target: T4, EGFR (G719C) (Homo sapiens, UniProt P00533, G719C); details: 10 μM compound
T4 construct: purchased KinomeScan, a division of Ambit Biosciences
From the text: as §1, §2

HIPK3 = target: T5, HIPK3 (Homo sapiens, UniProt Q9H422); details: 10 μM compound
T5 construct: purchased KinomeScan, a division of Ambit Biosciences
T5 sequence (Q9H422 whole entry): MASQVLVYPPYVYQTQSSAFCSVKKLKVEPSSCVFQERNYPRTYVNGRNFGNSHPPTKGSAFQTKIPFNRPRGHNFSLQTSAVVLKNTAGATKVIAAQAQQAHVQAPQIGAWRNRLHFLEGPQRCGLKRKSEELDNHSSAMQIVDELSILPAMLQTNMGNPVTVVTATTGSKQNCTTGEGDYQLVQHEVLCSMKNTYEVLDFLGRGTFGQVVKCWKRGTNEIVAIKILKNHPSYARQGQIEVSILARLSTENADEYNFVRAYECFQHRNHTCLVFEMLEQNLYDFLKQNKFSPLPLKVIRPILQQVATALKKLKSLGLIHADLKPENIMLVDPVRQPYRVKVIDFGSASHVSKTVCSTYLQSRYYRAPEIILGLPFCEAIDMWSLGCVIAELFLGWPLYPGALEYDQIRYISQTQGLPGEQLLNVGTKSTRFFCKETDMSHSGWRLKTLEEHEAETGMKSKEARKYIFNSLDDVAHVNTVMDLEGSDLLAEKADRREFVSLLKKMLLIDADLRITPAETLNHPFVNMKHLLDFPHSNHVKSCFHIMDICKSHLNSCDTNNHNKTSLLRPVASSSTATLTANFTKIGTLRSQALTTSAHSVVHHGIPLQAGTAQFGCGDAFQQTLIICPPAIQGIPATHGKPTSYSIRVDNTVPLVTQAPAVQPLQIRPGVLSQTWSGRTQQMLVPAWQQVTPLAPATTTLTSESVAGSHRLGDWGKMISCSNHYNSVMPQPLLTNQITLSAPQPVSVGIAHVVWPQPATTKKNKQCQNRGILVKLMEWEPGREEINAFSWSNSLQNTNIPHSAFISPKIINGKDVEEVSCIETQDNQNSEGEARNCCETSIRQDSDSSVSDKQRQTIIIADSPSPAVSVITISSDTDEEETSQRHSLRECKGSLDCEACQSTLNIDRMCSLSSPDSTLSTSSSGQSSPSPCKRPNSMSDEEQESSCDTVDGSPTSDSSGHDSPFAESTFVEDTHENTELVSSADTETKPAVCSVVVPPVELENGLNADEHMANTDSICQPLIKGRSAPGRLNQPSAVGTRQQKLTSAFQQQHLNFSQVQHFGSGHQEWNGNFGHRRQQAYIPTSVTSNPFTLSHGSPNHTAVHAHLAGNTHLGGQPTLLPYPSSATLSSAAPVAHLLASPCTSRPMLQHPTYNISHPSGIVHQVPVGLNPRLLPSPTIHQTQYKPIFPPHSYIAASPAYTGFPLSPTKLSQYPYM
From the text: as §1, §2

MAPKAPK5 = target: T6, MAPKAPK5 (Homo sapiens, UniProt Q8IW41); details: 10 μM compound
T6 construct: purchased KinomeScan, a division of Ambit Biosciences
T6 sequence (Q8IW41 1-473): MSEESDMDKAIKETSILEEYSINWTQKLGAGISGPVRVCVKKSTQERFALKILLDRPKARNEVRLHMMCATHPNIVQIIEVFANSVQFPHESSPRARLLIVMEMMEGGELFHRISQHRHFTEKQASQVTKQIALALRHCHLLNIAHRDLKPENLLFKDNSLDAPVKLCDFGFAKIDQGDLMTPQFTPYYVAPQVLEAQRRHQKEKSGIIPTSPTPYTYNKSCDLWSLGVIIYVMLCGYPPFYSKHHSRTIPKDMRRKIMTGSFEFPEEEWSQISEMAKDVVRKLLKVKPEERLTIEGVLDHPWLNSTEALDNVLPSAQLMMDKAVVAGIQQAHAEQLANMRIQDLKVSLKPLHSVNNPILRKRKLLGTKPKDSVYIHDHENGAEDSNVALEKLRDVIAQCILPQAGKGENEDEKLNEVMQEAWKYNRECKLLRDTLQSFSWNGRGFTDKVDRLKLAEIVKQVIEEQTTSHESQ
From the text: as §1, §2

MEK3 = target: T7, MEK3 (Homo sapiens, UniProt P46734); details: 10 μM compound
T7 construct: purchased KinomeScan, a division of Ambit Biosciences
T7 sequence (P46734 1-347): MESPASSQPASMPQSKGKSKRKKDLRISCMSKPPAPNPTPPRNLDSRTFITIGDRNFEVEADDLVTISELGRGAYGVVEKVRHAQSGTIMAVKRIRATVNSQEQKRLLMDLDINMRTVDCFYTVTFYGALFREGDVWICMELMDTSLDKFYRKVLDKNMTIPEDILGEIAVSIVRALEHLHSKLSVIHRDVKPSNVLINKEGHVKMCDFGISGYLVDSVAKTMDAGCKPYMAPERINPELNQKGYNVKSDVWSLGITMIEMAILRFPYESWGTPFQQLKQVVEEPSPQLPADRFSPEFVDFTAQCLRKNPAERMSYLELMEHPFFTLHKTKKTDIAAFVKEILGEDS
From the text: as §1, §2

MEK5 = target: T8, MEK5 (Homo sapiens, UniProt Q13163); details: 10 μM compound
T8 construct: purchased KinomeScan, a division of Ambit Biosciences
T8 sequence (Q13163 1-448): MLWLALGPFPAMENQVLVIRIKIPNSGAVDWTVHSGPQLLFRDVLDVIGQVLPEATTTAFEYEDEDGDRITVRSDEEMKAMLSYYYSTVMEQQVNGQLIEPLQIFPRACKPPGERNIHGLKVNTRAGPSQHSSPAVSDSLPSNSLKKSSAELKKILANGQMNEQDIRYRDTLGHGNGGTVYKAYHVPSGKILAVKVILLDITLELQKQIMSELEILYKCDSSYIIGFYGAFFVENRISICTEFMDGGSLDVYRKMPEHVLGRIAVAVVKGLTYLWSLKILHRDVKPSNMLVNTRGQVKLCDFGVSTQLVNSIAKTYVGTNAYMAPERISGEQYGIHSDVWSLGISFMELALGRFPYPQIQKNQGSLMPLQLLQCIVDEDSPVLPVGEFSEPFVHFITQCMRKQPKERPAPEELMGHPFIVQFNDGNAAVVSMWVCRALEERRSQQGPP
From the text: as §1, §2

STK16 = target: T9, STK16 (Homo sapiens, UniProt O75716); details: 10 μM compound
T9 construct: purchased KinomeScan, a division of Ambit Biosciences
T9 sequence (O75716 whole entry): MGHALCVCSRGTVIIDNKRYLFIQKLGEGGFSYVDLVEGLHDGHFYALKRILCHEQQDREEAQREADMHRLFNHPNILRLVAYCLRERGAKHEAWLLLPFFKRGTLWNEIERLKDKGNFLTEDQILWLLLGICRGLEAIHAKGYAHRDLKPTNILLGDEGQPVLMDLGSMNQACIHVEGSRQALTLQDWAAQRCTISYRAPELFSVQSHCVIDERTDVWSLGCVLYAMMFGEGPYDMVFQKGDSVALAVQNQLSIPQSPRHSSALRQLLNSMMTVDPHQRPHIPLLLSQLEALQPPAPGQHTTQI
From the text: as §1, §2

T1 sequence (Q06187 whole entry): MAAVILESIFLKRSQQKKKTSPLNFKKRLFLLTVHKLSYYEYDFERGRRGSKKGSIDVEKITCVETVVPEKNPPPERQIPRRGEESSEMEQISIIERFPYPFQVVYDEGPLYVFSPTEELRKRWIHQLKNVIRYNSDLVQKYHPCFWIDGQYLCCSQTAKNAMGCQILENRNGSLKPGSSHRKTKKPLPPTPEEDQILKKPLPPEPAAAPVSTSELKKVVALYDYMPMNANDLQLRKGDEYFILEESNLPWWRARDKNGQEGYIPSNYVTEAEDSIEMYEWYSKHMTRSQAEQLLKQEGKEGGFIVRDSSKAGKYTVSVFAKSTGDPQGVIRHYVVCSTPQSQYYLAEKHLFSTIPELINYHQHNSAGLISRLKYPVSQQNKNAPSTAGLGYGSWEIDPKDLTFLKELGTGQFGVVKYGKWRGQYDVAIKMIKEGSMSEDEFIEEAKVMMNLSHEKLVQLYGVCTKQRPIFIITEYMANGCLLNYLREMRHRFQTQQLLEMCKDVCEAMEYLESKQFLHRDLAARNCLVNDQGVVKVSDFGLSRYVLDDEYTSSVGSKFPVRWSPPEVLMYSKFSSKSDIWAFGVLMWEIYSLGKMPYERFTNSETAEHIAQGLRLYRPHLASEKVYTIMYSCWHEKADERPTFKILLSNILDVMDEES

SMILES	POC ligand binding, BTK (BTK) [POC]	POC ligand binding, CDK19 (CDK19) [POC]	Kd (CDK19) [nM]	POC ligand binding, CIT (CIT) [POC]	POC ligand binding, EGFR (G719C) (EGFR (G719C)) [POC]	POC ligand binding, HIPK3 (HIPK3) [POC]	POC ligand binding, MAPKAPK5 (MAPKAPK5) [POC]	POC ligand binding, MEK3 (MEK3) [POC]	POC ligand binding, MEK5 (MEK5) [POC]	POC ligand binding, STK16 (STK16) [POC]	inhibition of CDK19 (CDK19) [%]	POC ligand binding, CDK19 (CDK19; 10 µM) [POC]	POC ligand binding, CIT (CIT; 10 µM) [POC]	POC ligand binding, EGFR (G719C) (EGFR (G719C); 10 µM) [POC]	POC ligand binding, HIPK3 (HIPK3; 10 µM) [POC]	POC ligand binding, MAPKAPK5 (MAPKAPK5; 10 µM) [POC]	POC ligand binding, MEK3 (MEK3; 10 µM) [POC]	POC ligand binding, MEK5 (MEK5; 10 µM) [POC]	POC ligand binding, STK16 (STK16; 10 µM) [POC]
N#Cc1ccc2ncnc(NCc3ccc(Cl)cc3)c2c1 [compound 20]	100	0	99	7.9	34	28	92	76	62	25	–	–	–	–	–	–	–	–	–
N#Cc1ccc2ncnc(NCCc3ccc4ccccc4c3)c2c1 [compound 26]	100	5.6	160	40	68	66	100	78	61	16	94.6	–	–	–	–	–	–	–	–
CCCNc1ncnc2ccc(N3CCOCC3)cc12 [compound 46]	81	100	–	86	61	34	91	100	17	80	–	–	–	–	–	–	–	–	–
CC(C)CNc1ncnc2ccc(C(F)(F)F)cc12 [compound 45]	100	21	–	50	59	28	100	71	46	17	–	–	–	–	–	–	–	–	–
N#Cc1ccc2ncnc(NCc3ccc4ccccc4c3)c2c1 [compound 14]	100	–	1100	–	–	–	–	–	–	–	–	0.1	9.8	92	35	100	29	13	2.4
N#Cc1ccc2ncnc(NCc3ccc4ccccc4c3)c2c1 [compound 43]	100	–	190	–	–	–	–	–	–	–	–	0.25	14	53	42	85	64	41	30
N#Cc1ccc2ncnc(NCCc3ccccc3)c2c1 [compound 1]	15	0.05	310	15	13	18	15	18	18	4.2	> 99	–	–	–	–	–	–	–	–
COc1ccc2ncnc(NCCc3ccccc3)c2c1 [compound 44]	100	9.2	–	18	0.85	53	94	72	59	70	–	–	–	–	–	–	–	–	–
